# Experimental data from ChEMBL document CHEMBL5463729, “Data for DCP probe BAY 1753011” (2023).
# Columns and labels:
# Settings in all cases: Compound concentration 10.0 uM
# [1] = target: Adenosine receptor A1 (Homo sapiens) (UniProt P30542)
# [2] = target: Adenosine receptor A2a (Homo sapiens) (UniProt P29274)
# [3] = target: T1, Alpha-2C adrenergic receptor (Homo sapiens) (UniProt P18825)
# T1 sequence (whole entry): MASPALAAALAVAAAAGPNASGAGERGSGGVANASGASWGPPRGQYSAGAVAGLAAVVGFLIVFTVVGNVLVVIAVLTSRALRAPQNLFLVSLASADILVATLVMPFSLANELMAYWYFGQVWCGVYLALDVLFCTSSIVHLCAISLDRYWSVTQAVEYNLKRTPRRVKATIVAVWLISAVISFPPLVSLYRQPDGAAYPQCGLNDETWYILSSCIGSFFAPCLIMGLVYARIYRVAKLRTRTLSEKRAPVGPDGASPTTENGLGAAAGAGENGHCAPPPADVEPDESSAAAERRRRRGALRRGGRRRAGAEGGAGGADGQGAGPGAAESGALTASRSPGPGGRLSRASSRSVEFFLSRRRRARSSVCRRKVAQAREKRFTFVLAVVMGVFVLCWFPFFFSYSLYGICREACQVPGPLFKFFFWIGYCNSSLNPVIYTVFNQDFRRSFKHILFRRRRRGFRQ
# [4] = target: Delta-type opioid receptor (Homo sapiens) (UniProt P41143)
# Delta-type opioid receptor (Homo sapiens), sequence (P41143 whole entry): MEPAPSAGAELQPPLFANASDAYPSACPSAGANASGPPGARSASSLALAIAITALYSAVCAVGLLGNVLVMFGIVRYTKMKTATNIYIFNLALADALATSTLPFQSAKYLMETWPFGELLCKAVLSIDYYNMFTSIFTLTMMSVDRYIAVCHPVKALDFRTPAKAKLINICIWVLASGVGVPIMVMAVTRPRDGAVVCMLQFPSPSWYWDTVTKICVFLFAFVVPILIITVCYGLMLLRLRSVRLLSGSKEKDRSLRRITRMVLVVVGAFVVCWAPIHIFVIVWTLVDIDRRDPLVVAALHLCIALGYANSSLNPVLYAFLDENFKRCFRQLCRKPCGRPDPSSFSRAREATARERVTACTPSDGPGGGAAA
# [5] = target: Dual specificity mitogen-activated protein kinase kinase 1 (Homo sapiens) (UniProt Q02750); assay: Inhibition of MEK1(h) at 10.0 µM in the Eurofins Kinase panel
# [6] = target: Myotonin-protein kinase (Homo sapiens) (UniProt Q09013); assay: Inhibition of DMPK(h) at 10.0 µM in the Eurofins Kinase panel
# Myotonin-protein kinase (Homo sapiens), sequence (Q09013 whole entry): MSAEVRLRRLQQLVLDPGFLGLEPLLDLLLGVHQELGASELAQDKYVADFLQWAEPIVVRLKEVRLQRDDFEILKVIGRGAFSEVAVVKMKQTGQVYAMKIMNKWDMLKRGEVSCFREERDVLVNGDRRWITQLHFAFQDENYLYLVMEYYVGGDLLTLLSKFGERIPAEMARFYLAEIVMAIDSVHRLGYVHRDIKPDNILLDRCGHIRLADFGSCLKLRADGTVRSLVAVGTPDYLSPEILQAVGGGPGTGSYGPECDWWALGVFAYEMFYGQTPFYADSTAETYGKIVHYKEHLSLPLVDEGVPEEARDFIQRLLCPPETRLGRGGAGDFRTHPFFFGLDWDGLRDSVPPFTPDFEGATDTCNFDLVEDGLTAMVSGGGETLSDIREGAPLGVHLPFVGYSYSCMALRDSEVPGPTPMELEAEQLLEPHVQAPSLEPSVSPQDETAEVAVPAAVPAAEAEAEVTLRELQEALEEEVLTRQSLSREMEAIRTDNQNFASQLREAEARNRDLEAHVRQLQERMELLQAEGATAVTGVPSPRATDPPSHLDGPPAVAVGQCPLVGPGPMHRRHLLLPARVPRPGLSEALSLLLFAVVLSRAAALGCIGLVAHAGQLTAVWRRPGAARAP
# [7] = target: Serine/threonine-protein kinase haspin (Homo sapiens) (UniProt Q8TF76); assay: Inhibition of Haspin(h) at 10.0 µM in the Eurofins Kinase panel
# [8] = target: eIF-2-alpha kinase GCN2 (Homo sapiens) (UniProt Q9P2K8); assay: Inhibition of GCN2(h) at 10.0 µM in the Eurofins Kinase panel
# [9] = target: cAMP-dependent protein kinase catalytic subunit PRKX (Homo sapiens) (UniProt P51817); assay: Inhibition of PrKX(h) at 10.0 µM in the Eurofins Kinase panel
# [10] = target: PI3-kinase p110-delta/p85-alpha (Homo sapiens) (UniProt P27986+O00329); assay: Inhibition of PI3 Kinase (p110d/p85a)(h) at 10.0 µM in the Eurofins Kinase panel; assay type: protein-complex assay
# [11] = target: Activin receptor type-1 (Homo sapiens) (UniProt Q04771); assay: Inhibition of ALK2(h) at 10.0 µM in the Eurofins Kinase panel
# [12] = target: PAS domain-containing serine/threonine-protein kinase (Homo sapiens) (UniProt Q96RG2); assay: Inhibition of PASK(h) at 10.0 µM in the Eurofins Kinase panel
# [13] = target: 5-hydroxytryptamine receptor 1B (Homo sapiens) (UniProt P28222)
# 5-hydroxytryptamine receptor 1B (Homo sapiens), sequence (P28222 whole entry): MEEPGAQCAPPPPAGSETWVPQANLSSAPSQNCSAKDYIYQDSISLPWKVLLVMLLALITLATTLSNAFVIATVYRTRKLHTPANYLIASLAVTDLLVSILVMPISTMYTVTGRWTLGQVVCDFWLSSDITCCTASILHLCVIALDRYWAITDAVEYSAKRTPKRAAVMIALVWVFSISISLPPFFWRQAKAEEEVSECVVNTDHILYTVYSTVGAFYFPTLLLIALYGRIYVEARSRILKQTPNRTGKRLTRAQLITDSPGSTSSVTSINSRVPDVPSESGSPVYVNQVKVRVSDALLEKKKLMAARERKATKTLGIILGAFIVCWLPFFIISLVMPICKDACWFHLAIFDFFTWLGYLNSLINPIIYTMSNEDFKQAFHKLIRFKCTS
# [14] = target: Mast/stem cell growth factor receptor Kit (Homo sapiens) (UniProt P10721); assay: Inhibition of cKit(h) at 10.0 µM in the Eurofins Kinase panel
# Mast/stem cell growth factor receptor Kit (Homo sapiens), sequence (P10721 whole entry): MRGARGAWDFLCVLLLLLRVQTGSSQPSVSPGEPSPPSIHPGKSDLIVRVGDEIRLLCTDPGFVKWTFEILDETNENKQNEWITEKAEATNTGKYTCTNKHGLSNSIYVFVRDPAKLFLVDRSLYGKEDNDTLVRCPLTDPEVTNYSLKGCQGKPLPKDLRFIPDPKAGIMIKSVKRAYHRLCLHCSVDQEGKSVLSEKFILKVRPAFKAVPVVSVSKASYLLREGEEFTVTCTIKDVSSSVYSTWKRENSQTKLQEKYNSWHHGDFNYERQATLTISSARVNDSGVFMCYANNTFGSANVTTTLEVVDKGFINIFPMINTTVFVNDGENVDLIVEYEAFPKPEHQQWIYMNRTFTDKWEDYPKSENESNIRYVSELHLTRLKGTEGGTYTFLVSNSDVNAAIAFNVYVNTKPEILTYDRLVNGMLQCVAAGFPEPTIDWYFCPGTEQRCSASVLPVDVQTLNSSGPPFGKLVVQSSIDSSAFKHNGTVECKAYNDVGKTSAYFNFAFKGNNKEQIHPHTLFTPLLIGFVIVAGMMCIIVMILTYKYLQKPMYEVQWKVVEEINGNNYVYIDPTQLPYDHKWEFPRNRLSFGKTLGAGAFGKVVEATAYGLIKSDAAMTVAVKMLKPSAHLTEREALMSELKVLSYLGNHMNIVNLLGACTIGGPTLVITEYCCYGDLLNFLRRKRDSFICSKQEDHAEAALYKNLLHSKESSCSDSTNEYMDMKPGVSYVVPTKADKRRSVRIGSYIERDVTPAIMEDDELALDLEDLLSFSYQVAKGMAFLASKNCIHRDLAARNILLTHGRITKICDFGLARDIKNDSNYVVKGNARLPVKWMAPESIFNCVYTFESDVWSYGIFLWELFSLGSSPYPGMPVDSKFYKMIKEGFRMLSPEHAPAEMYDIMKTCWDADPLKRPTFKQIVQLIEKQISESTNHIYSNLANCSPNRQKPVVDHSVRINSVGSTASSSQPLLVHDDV
# [15] = target: Misshapen-like kinase 1 (Homo sapiens) (UniProt Q8N4C8); assay: Inhibition of MINK(h) at 10.0 µM in the Eurofins Kinase panel
# [16] = target: Serine/threonine-protein kinase Nek2 (Homo sapiens) (UniProt P51955); assay: Inhibition of NEK2(h) at 10.0 µM in the Eurofins Kinase panel
# [17] = target: D(2) dopamine receptor (Homo sapiens) (UniProt P14416)
# D(2) dopamine receptor (Homo sapiens), sequence (P14416 whole entry): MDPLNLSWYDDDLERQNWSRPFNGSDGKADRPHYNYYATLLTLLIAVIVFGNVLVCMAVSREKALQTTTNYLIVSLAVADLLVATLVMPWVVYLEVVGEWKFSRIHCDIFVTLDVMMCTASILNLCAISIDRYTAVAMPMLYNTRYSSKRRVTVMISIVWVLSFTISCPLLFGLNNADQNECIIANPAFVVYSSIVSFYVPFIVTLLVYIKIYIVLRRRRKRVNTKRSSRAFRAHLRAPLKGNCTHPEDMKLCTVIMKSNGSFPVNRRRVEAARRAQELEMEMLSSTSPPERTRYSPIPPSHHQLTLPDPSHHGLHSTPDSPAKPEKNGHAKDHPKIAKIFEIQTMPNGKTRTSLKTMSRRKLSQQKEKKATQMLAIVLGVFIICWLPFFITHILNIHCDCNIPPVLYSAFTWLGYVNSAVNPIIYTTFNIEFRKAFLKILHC
# [18] = target: Dual specificity mitogen-activated protein kinase kinase 2 (Homo sapiens) (UniProt P36507); assay: Inhibition of MEK2(h) at 10.0 µM in the Eurofins Kinase panel
# [19] = target: Protein-tyrosine kinase 6 (Homo sapiens) (UniProt Q13882); assay: Inhibition of BRK(h) at 10.0 µM in the Eurofins Kinase panel
# Protein-tyrosine kinase 6 (Homo sapiens), sequence (Q13882 whole entry, looked up): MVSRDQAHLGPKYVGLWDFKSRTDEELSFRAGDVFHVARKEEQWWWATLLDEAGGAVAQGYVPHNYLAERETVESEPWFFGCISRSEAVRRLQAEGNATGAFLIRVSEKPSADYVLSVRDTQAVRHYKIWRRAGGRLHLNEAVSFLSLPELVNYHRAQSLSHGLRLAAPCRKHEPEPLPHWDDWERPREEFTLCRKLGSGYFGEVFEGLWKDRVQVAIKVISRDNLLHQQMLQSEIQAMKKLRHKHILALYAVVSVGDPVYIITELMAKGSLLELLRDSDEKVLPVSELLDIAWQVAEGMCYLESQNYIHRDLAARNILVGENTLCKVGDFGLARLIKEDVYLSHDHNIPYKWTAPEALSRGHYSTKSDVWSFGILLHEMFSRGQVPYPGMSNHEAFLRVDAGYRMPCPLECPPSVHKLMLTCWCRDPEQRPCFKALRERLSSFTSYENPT
# [20] = target: Bone morphogenetic protein receptor type-2 (Homo sapiens) (UniProt Q13873); assay: Inhibition of BMPR2(h) at 10.0 µM in the Eurofins Kinase panel
# [21] = target: Tau-tubulin kinase 1 (Homo sapiens) (UniProt Q5TCY1); assay: Inhibition of TTBK1(h) at 10.0 µM in the Eurofins Kinase panel
# Tau-tubulin kinase 1 (Homo sapiens), sequence (Q5TCY1 whole entry): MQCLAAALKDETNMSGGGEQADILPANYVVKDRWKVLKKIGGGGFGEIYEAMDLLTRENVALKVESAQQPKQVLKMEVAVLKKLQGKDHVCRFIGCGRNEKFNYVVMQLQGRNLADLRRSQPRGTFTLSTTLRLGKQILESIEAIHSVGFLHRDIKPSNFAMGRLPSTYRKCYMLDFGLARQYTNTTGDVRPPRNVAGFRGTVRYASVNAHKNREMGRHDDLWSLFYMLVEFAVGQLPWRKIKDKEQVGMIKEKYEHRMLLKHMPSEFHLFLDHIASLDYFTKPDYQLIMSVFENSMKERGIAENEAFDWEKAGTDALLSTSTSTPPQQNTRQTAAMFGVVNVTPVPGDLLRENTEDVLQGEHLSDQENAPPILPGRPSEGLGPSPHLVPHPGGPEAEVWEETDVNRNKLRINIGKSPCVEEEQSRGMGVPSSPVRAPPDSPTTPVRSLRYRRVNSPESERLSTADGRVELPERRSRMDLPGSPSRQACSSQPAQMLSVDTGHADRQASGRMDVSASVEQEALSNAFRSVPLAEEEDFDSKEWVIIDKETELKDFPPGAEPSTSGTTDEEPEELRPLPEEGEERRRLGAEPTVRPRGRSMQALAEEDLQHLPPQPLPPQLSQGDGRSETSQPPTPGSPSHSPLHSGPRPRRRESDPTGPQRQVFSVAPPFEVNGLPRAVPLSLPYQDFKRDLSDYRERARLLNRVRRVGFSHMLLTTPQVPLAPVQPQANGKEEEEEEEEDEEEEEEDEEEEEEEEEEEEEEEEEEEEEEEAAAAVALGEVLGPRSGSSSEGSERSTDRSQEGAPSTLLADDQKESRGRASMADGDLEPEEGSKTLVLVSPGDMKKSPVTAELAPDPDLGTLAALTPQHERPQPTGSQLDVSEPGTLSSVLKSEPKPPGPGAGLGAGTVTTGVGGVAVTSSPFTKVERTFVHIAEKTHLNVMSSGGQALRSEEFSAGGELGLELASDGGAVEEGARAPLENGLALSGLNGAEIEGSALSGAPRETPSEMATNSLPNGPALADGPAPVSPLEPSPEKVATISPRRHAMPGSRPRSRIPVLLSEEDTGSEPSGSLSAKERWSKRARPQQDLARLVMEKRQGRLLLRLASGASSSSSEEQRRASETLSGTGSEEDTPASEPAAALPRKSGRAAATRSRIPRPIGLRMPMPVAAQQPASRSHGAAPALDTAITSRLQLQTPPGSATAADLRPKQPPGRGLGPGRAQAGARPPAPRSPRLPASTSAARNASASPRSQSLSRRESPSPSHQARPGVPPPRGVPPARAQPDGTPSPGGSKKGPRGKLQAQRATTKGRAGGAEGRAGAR
# [22] = target: Serine/threonine-protein kinase/endoribonuclease IRE1 (Homo sapiens) (UniProt O75460); assay: Inhibition of IRE1(h) at 10.0 µM in the Eurofins Kinase panel
# [23] = target: Sodium-dependent noradrenaline transporter (Homo sapiens, UniProt P23975)
# [24] = target: Serine/threonine-protein kinase PAK 1 (Homo sapiens) (UniProt Q13153); assay: Inhibition of PAK1(h) at 10.0 µM in the Eurofins Kinase panel
# [25] = target: Muscle, skeletal receptor tyrosine-protein kinase (Homo sapiens) (UniProt O15146); assay: Inhibition of MuSK(h) at 10.0 µM in the Eurofins Kinase panel
# [26] = target: Phosphatidylinositol 4-phosphate 5-kinase type-1 alpha (Homo sapiens) (UniProt Q99755); assay: Inhibition of PIP5K1a(h) at 10.0 µM in the Eurofins Kinase panel
# [27] = target: MAP kinase-activated protein kinase 2 (Homo sapiens) (UniProt P49137); assay: Inhibition of MAPK2(h) at 10.0 µM in the Eurofins Kinase panel
# Adenosine receptor A2a (Homo sapiens), sequence (P29274 whole entry): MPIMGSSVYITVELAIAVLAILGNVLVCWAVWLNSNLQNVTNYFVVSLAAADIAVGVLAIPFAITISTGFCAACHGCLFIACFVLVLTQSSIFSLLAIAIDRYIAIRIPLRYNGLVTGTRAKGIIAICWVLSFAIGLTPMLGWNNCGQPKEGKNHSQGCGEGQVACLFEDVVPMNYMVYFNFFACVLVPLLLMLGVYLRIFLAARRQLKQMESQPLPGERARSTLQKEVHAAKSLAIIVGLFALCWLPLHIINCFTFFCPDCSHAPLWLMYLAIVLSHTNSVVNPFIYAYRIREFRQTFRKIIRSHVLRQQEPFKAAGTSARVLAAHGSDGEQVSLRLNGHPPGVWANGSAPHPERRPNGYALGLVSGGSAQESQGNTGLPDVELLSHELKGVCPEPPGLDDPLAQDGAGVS
SMILES,inhibition [1] [%],inhibition [2] [%],inhibition [3] [%],inhibition [4] [%],inhibition [5] [%],inhibition [6] [%],inhibition [7] [%],inhibition [8] [%],inhibition [9] [%],inhibition [10] [%],inhibition [11] [%],inhibition [12] [%],inhibition [13] [%],inhibition [14] [%],inhibition [15] [%],inhibition [16] [%],inhibition [17] [%],inhibition [18] [%],inhibition [19] [%],inhibition [20] [%],also measured
O=c1n(Cc2cncn2-c2cccc(Cl)c2)nc(-c2ccc(Cl)cc2)n1C[C@H](O)C(F)(F)F,8,1,-9.85,12.4,4.57,4.48,-2.75,12.4,6.15,-4.66,-2.29,-0.36,7.15,7.72,5.6,-1.06,-8.61,6.76,-7.96,14.4,inhibition [21]: -6.92%; inhibition [22]: 19.2%; inhibition [23]: 8%; inhibition [24]: 5.16%; inhibition [25]: 0.19%; inhibition [26]: -4.61%; inhibition [27]: 11.3%
C[C@H](O)c1nc(Cn2nc(-c3ccc(Cl)cc3)n(C[C@H](O)C(F)(F)F)c2=O)nn1-c1cccc(Cl)c1 [PECAVAPTAN],26,4,-2.74,15.4,-3.73,12.7,2.09,13.1,1.42,-1.36,-2.51,-4.97,4.87,4.28,5.2,3.19,-5.84,0.27,-3.8,11.1,inhibition [21]: -7.82%; inhibition [22]: 5.58%; inhibition [23]: 62%; inhibition [24]: 5.15%; inhibition [25]: -2.36%; inhibition [26]: -9.11%; inhibition [27]: 11.1%
